Measured values from patent US20060178374A1, “Aminoheteroaryl compounds as protein kinase inhibitors” (AGOURON PHARMACEUTICALS, INC., priority 2004, published 2006).

target: HGFR (c-Met) (Homo sapiens, UniProt P08581); assay: HGFR Continuous-Coupled Spectrophotometric Assay; assay type: biochemical; details: HGFR enzyme 50 nM, Met-2 peptide substrate, 37° C.
Method: The general procedure is as follows: compounds and kinase assay reagents are introduced into test wells. The assay is initiated by addition of the kinase enzyme. Enzyme inhibitors reduce the measured activity of the enzyme.
In the continuous-coupled spectrophotometric assay the time-dependent production of ADP by the kinase is determined by analysis of the rate of consumption of NADH by measurement of the decrease in absorbance at 340 nm. As the PK produces ADP it is re-converted to ATP by reaction with phosphoenol pyruvate and pyruvate kinase. Pyruvate is also produced in this reaction. Pyruvate is subsequently converted to lactate by reaction with lactate dehydrogenase, which simultaneously converts NADH to NAD.
HGFR Continuous-Coupled Spectrophotometric Assay
This assay analyzes the tyrosine kinase activity of HGFR on the Met-2 substrate peptide, a peptide derived from the activation loop of the HGFR.
• 1. […] Dissolve up in 200 mM HEPES, pH 7.5 at 10 mM stock. • 3. 1 M PEP (phospho-enol-pyruvate) in 200 mM HEPES, pH 7.5 • 4. 100 mM NADH (B-Nicotinamide Adenine Dinucleotide, Reduced Form) in 200 mM HEPES, pH 7.5 • 5. 4 M MgCl2 (Magnesium Chloride) in ddH2O 6. 1 M DTT (Dithiothreitol) in 200 mM HEPES, pH 7.5 • 7. 15 Units/mL LDH (Lactic Dehydrogenase) • 8. 15 Units/mL PK (Pyruvate Kinase) • 9. 5M NaCl dissolved in ddH2O • 10. Tween-20 (Protein Grade) 10% Solution • 11. 1 M HEPES buffer: (N-[2-Hydroxethyl]piperazine-N-[2-ethanesulfonic acid]) Sodium Salt. Dissolve in ddH2O, adjust pH to 7.5, bring volume to 1 L. Filter at 0.1 μm. • 12. […] 100% DMSO (SIGMA) • 14. […] Beckman DU-650 w/ micro cell holders • 18. Beckman 4-position micro cell cuvette Procedure:
Prep Dilution Buffer (DB) for Enzyme (For 30 mL prep) • 1. DB final concentration is 2 mM DTT, 25 mM NaCl2, 5 mM MgCl2, 0.01% Tween-20, and 50 mM HEPES buffer, pH 7.5. • 2. Make up 50 mM HEPES by adding 1.5 mL 1 M HEPES into 28.1 mL of ddH2O. Add rest of the reagents. Into 50 mL conical vial, add 60 μL of 1M DTT, 150 μL 5M NaCl2, 150 μL 1M MgCl2, and 30 μL of 10% Tween-20 to give total volume of 30 mL. • 3. Vortex for 5-10 seconds. • 4. Aliquot out DB at 1 mL/tube and label tubes as “DB HGFR” • 5. Note: This can be prepared and stored ahead of time. • 6. Freeze un-used aliquots in microcentrifuge tubes at −20° C. freezer.
Prep Compounds • 1. For compound dilution plate, add 4 μL of 10 mM stock into column 1 of plate, and bring volume to 100 μL with 100% DMSO. • 2. Set up the Precision 2000 dilution method. A final concentration of 200 μM compound in 50% DMSO, 100 mM HEPES (1:2 serial dilution).
Prep Coupled Enzymatic Buffer:
1. Final concentration in assay:
• 2. For a 10 mL reaction buffer add 10 μL of 1M PEP, 33 μL of 100 mM NADH, 50 μL of 4M MgCl2, 20 μL of 1M DTT, 6 μL of 500 mM ATP, and […] of 10 mM Met-2 peptide into 100 mM HEPES buffer pH 7.5 and vortex/mix. • 3. Add coupling enzymes, LDH and PK, into reaction mix. Mix by gentle inversion.
1. Spectrophotometer settings:
• 2. Add 85 μL of CE reaction mix into each well of assay plate. • 3. Add 5 μL of diluted compound into a well of the assay plate. • 4. Add 5 μL of 50% DMSO for negative control into last column of assay plate. • 5. Mix with multi-channel pipettor or orbital shaker. • 6. Pre-incubate for 10 minutes at 37° C. • 7. Add 10 μL of 500 nM HGFR to each well of assay plate; the final HGFR concentration is 50 nM in a total final volume of 100 μL. • 8. Measure activity for 10 minutes at λ=340 nm and 37° C.
Ki data were obtained using the HGFR Continuous-Coupled Spectrophotometric Assay, and IC50 data were obtained using the Cellular HGFR Autophosphorylation Assay, both of which are described above.

Sequence of HGFR (c-Met) (P08581 974-1390): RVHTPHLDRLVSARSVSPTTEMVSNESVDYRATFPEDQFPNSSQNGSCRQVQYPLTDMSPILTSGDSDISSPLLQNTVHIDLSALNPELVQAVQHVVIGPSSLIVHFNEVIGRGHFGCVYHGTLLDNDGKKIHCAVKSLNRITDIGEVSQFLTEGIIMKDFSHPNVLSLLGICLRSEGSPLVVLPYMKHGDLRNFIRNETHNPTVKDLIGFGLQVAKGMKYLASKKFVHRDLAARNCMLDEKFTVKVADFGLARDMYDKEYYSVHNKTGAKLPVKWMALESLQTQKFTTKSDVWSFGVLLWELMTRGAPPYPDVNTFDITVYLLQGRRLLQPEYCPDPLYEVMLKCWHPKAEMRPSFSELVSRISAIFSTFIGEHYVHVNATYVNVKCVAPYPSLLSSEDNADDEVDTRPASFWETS

| SMILES | Ki [nM] |
| --- | --- |
| CC(Oc1cc(-c2ccc(C(=O)N3CCC(N4CCCC4)CC3)cc2)cnc1N)c1ccccc1 (stereo not drawn) [Example 53, {4-[6-Amino-5-(1-phenyl-ethoxy)-pyridin-3-yl]-phenyl}-(4-pyrrolidin-1-yl-piperidin-1-yl)-methanone] | 11000 |
| CC(Oc1cc(-c2ccc(F)c(C(=O)N3C[C@@H](C)N[C@@H](C)C3)c2)cnc1N)c1c(Cl)ccc(F)c1Cl (stereo partly drawn) [Example 54, (5-{6-Amino-5-[1-(2,6-dichloro-3-fluoro-phenyl)-ethoxy]-pyridin-3-yl}-2-fluoro-phenyl)-(dimethyl-piperazin-1-yl)-methanone] | 79 |
| CC(Oc1cc(-c2ccc(F)c(C(=O)N3CCC(N4CCCC4)CC3)c2)cnc1N)c1c(Cl)ccc(F)c1Cl (stereo not drawn) [Example 55, (5-{6-Amino-5-[1-(2,6-dichloro-3-fluoro-phenyl)-ethoxy]-pyridin-3-yl}-2-fluoro-phenyl)-(4-pyrrolidin-1-yl-piperidin-1-yl)-methanone] | 102 |
| Cc1ccc(F)c(C(C)Oc2cc(-c3ccc(C(=O)N4CCC(N5CCCC5)CC4)cc3)cnc2N)c1Cl (stereo not drawn) [Example 56, (4-{6-Amino-5-[1-(2-chloro-6-fluoro-3-methyl-phenyl)-ethoxy]-pyridin-3-yl}-phenyl)-(4-pyrrolidin-1-yl-piperidin-1-yl)-methanone] | 173 |
| CC(Oc1cc(-c2cn(CC(=O)OC(C)(C)C)cn2)cnc1N)c1c(Cl)ccc(F)c1Cl (stereo not drawn) [Example 58, (4-{6-Amino-5-[1-(2,6-dichloro-3-fluoro-phenyl)-ethoxy]-pyridin-3-yl}-imidazol-1-yl)-acetic acid tert-butyl ester] | 578 |
| CC(Oc1cc(-c2cn(CCN3CCOCC3)cn2)cnc1N)c1c(Cl)ccc(F)c1Cl (stereo not drawn) [Example 59, 3-[1-(2,6-Dichloro-3-fluoro-phenyl)-ethoxy]-5-[1-(2-morpholin-4-yl-ethyl)-1H-imidazol-4-yl]-pyridin-2-ylamine] | 155 |
| CC(Oc1cc(-c2cn(CC(=O)NCCN3CCCC3)cn2)cnc1N)c1c(Cl)ccc(F)c1Cl (stereo not drawn) [Example 60, 2-(4-{6-Amino-5-[1-(2,6-dichloro-3-fluoro-phenyl)-ethoxy]-pyridin-3-yl}-imidazol-1-yl)-N-(2-pyrrolidin-1-yl-ethyl)-acetamide] | 599 |
| CC(Oc1cc(-c2ccc(N3CCOCC3)nc2)cnc1N)c1c(Cl)ccc(F)c1Cl (stereo not drawn) [Example 61, 5-[1-(2,6-Dichloro-3-fluoro-phenyl)-ethoxy]-6′-morpholin-4-yl-[3,3′]bipyridinyl-6-ylamine] | 72 |
| CC(Oc1cc(-c2ccc(N3CCN(C)CC3)nc2)cnc1N)c1c(Cl)ccc(F)c1Cl (stereo not drawn) [Example 63, 5-[1-(2,6-Dichloro-3-fluoro-phenyl)-ethoxy]-6′-(4-methyl-piperazin-1-yl)-[3,3′]bipyridinyl-6-ylamine] | 35.3 |
| CC(Oc1cc(-c2ccc(N3CCC(O)CC3)nc2)cnc1N)c1c(Cl)ccc(F)c1Cl (stereo not drawn) [Example 64, 6″-Amino-5″-[1-(2,6-dichloro-3-fluoro-phenyl)-ethoxy]-3,4,5,6-tetrahydro-2H-[1,2′;5′,3″]terpyridin-4-ol] | 19.3 |
| CC(Oc1cc(-c2ccc(N3CCC(CO)CC3)nc2)cnc1N)c1c(Cl)ccc(F)c1Cl (stereo not drawn) [Example 65, {6″-Amino-5″-[1-(2,6-dichloro-3-fluoro-phenyl)-ethoxy]-3,4,5,6-tetrahydro-2H-[1,2′;5′,3″]terpyridin-4-yl}-methanol] | 43.5 |
| CC(Oc1cc(-c2ccc(N3CCN(CCO)CC3)nc2)cnc1N)c1c(Cl)ccc(F)c1Cl (stereo not drawn) [Example 66, 2-(4-{6′-Amino-5′-[1-(2,6-dichloro-3-fluoro-phenyl)-ethoxy]-[3,3′]bipyridinyl-6-yl}-piperazin-1-yl)-ethanol] | 32.7 |
| CC(Oc1cc(-c2ccc(N3CCC(N4CCCC4)CC3)nc2)cnc1N)c1c(Cl)ccc(F)c1Cl (stereo not drawn) [Example 67, 5″-[1-(2,6-Dichloro-3-fluoro-phenyl)-ethoxy]-4-pyrrolidin-1-yl-3,4,5,6-tetrahydro-2H-[1,2′;5′,3″]terpyridin-6″-ylamine] | 23.1 |
| CCN(CC)CCC(=O)NCc1cccc(-c2cnc(N)c(OC(C)c3c(Cl)ccc(F)c3Cl)c2)c1 (stereo not drawn) [Example 68, N-(3-{6-Amino-5-[1-(2,6-dichloro-3-fluoro-phenyl)-ethoxy]-pyridin-3-yl}-benzyl)-3-diethylamino-propionamide] | 68.1 |
| CC(Oc1cc(-c2ccc(N3CCN(CCN(C)C)CC3)nc2)cnc1N)c1c(Cl)ccc(F)c1Cl (stereo not drawn) [Example 69, 5-[1-(2,6-Dichloro-3-fluoro-phenyl)-ethoxy]-6′-[4-(2-dimethylamino-ethyl)-piperazin-1-yl]-[3,3′]bipyridinyl-6-ylamine] | 39 |
| CC(Oc1cc(-c2cccc(CNC(=O)CN(C)C)c2)cnc1N)c1c(Cl)ccc(F)c1Cl (stereo not drawn) [Example 70, N-(3-{6-Amino-5-[1-(2,6-dichloro-3-fluoro-phenyl)-ethoxy]-pyridin-3-yl}-benzyl)-2-dimethylamino-acetamide] | 52 |
| CC(Oc1cc(-c2ccc(OC3CCNCC3)nc2)cnc1N)c1c(Cl)ccc(F)c1Cl (stereo not drawn) [Example 71, 5-[1-(2,6-Dichloro-3-fluoro-phenyl)-ethoxy]-6′-(piperidin-4-yloxy)-[3,3′]bipyridinyl-6-ylamine] | 27 |
| CC(Oc1cc(-c2cccc(CNC(=O)CCN)c2)cnc1N)c1c(Cl)ccc(F)c1Cl (stereo not drawn) [Example 72, 3-Amino-N-(3-{6-amino-5-[1-(2,6-dichloro-3-fluoro-phenyl)-ethoxy]-pyridin-3-yl}-benzyl)-propionamide] | 49 |
| CC(Oc1cc(-c2ccc(N3CCNCC3)nc2)cnc1N)c1c(Cl)ccc(F)c1Cl (stereo not drawn) [Example 73, 5-[1-(2,6-Dichloro-3-fluoro-phenyl)-ethoxy]-6′-piperazin-1-yl-[3,3′]bipyridinyl-6-ylamine] | 21 |
| CC(Oc1cc(-c2ccc(OCCC3CCNCC3)nc2)cnc1N)c1c(Cl)ccc(F)c1Cl (stereo not drawn) [Example 74, 5-[1-(2,6-Dichloro-3-fluoro-phenyl)-ethoxy]-6′-(2-piperidin-4-yl-ethoxy)-[3,3′]bipyridinyl-6-ylamine] | 47 |
| CC(Oc1cc(-c2ccc(NCCN3CCCC3)nc2)cnc1N)c1c(Cl)ccc(F)c1Cl (stereo not drawn) [Example 75, 5-[1-(2,6-Dichloro-3-fluoro-phenyl)-ethoxy]-N6′-(2-pyrrolidin-1-yl-ethyl)-[3,3′]bipyridinyl-6,6′-diamine] | 28 |
| CC(Oc1cc(-c2ccc(NC3CCNCC3)nc2)cnc1N)c1c(Cl)ccc(F)c1Cl (stereo not drawn) [Example 76, 5-[1-(2,6-Dichloro-3-fluoro-phenyl)-ethoxy]-N6′-piperidin-4-yl-[3,3′]bipyridinyl-6,6′-diamine] | 22 |
| CC(Oc1cc(-c2cn(C3CCNCC3)cn2)cnc1N)c1c(Cl)ccc(F)c1Cl (stereo not drawn) [Example 77, 3-[1-(2,6-Dichloro-3-fluoro-phenyl)-ethoxy]-5-(1-piperidin-4-yl-1H-imidazol-4-yl)-pyridin-2-ylamine] | 38 |
| CCOc1ccc(Cl)c(C(C)Oc2cc(-c3ccc(C(=O)N4CCNCC4)cc3)cnc2N)c1Cl (stereo not drawn) [Example 78, (4-{6-Amino-5-[1-(2,6-dichloro-3-ethoxy-phenyl)-ethoxy]-pyridin-3-yl}-phenyl)-piperazin-1-yl-methanone] | 57 |
